# According to patent publication US20160081354A1, “METHOD FOR TREATMENT OF MICROORGANISMS DURING PROPAGATION, CONDITIONING AND FERMENTATION USING HOPS ACID EXTRACTS AND NISIN” (Solenis Technologies, L.P., priority 2014, published 2016):
# Columns and labels:
# L. plantarum = test: Corn mash fermentation lab test: bacterial colony counts after antimicrobial addition; format: cell-based; conditions: nisin alone 5 ppm, virginiamycin 0.5 ppm
# Procedure: Evaluations were conducted at the National Corn-to-Ethanol Research Center, utilizing hops acid extracts and nisin. The samples tested and their concentrations can be found in FIG. 1 and Tables 2 and 4. The tests were conducted to evaluate the effects of binary antimicrobials on ethanol production in corn mash produced under conditions that are similar to those used in the fuel ethanol industry. Two specific effects were investigated: (1) the ability of antimicrobials to affect ethanol yield and sugar conversion in fermentations that are contaminated by lactic acid bacteria, and (2) the ability of antimicrobials to control bacterial infections compared to control bacteria-free fermentations. Three 160-gram slurries of corn flour, water and enzyme (30% w/w dry solids) were made for each treatment and control (inoculated and uninoculated). The slurries were incubated for 90 minutes at 83° C., cooled to 40° C., and then inoculated with L. plantarum. Next, the slurries were dosed with antimicrobial. The facility dosed hops acid extracts and nisin to 250-mL Erlenmeyer flasks and samples were collected at 15, 30 and 60 minutes post antimicrobial addition. After the 3 time-point samples were collected, the pH of the mash was adjusted to <5.2 by addition of 300 μl of 5-N sulfuric acid. All enzymes, nutrients, and other amendments added to the fermentation flasks were freshly prepared before use. Urea was added as a sterile 0.2-g/ml solution to a final concentration of 500 ppm (w/w) based on the nitrogen content of the urea (w/w, based on the total mass of mash). The glucoamylase enzyme (Spirizyme Excel, Novozymes) was prepared as a 0.25-g/ml solution and added at a dose of 0.066% (w/w, based on the wet weight of corn). Sterile water was added to equalize the total solids content of each treatment. […] The mass of each flask was recorded after all additions were made, then sanitized fermentation traps were inserted into each flask and they were weighed again. […] Fermentation progress was monitored by weighing the fermentation flasks periodically during the 3-day incubation (at 0, 17.5, 22.5, 42.5, 48, and 64 hrs after inoculation with yeast). The concentrations of substrates (glucose, DP2, DP3, and DP4+, where “DPx” represent glucose oligomers with “x” subunits) and products (ethanol, glycerol, lactic acid, and acetic acid) were measured by HPLC at the end of fermentation. Samples were prepared for HPLC by centrifugation to remove large solids, followed by filtration through 0.45-μm syringe filters, and acidification to pH of approximately 2 by addition of sulfuric acid to a final concentration of 0.01 N. The final pH, concentrations of total dry solids and dissolved dry solids, and the density of the beer filtrate was measured were measured after incubation for 64 hours. […]
# yeast = conditions: fermentation mixture; cited from earlier work
# Weisella confusa = conditions: cited from earlier work
# [1] = test system: yeast (Saccharomyces cerevisiae) fermentations contaminated by lactic acid bacteria (L. plantarum); test: Corn mash fermentation lab test: ethanol and lactic acid at the end of fermentation; format: cell-based; conditions: 64 hours, nisin alone 5 ppm, Virginiamycin 0.5 ppm
# Procedure: Evaluations were conducted at the National Corn-to-Ethanol Research Center, utilizing hops acid extracts and nisin. The samples tested and their concentrations can be found in FIG. 1 and Tables 2 and 4. The tests were conducted to evaluate the effects of binary antimicrobials on ethanol production in corn mash produced under conditions that are similar to those used in the fuel ethanol industry. Two specific effects were investigated: (1) the ability of antimicrobials to affect ethanol yield and sugar conversion in fermentations that are contaminated by lactic acid bacteria, and (2) the ability of antimicrobials to control bacterial infections compared to control bacteria-free fermentations. Three 160-gram slurries of corn flour, water and enzyme (30% w/w dry solids) were made for each treatment and control (inoculated and uninoculated). The slurries were incubated for 90 minutes at 83° C., cooled to 40° C., and then inoculated with L. plantarum. Next, the slurries were dosed with antimicrobial. […] The mass of each flask was recorded after all additions were made, then sanitized fermentation traps were inserted into each flask and they were weighed again. […] Fermentation progress was monitored by weighing the fermentation flasks periodically during the 3-day incubation (at 0, 17.5, 22.5, 42.5, 48, and 64 hrs after inoculation with yeast). The concentrations of substrates (glucose, DP2, DP3, and DP4+, where “DPx” represent glucose oligomers with “x” subunits) and products (ethanol, glycerol, lactic acid, and acetic acid) were measured by HPLC at the end of fermentation. Samples were prepared for HPLC by centrifugation to remove large solids, followed by filtration through 0.45-μm syringe filters, and acidification to pH of approximately 2 by addition of sulfuric acid to a final concentration of 0.01 N. The final pH, concentrations of total dry solids and dissolved dry solids, and the density of the beer filtrate was measured were measured after incubation for 64 hours. […]
substance,measurement,setting,value
Virginiamycin,Colony counts after antimicrobial addition,L. plantarum; time point 0.25 (15 minutes post addition),1.00E+06
same,Colony counts after antimicrobial addition,L. plantarum; time point 0.5 (30 minutes post addition),1.35E+06
same,Colony counts after antimicrobial addition,L. plantarum; time point 1 (60 minutes post addition),1.95E+06
same,Colony counts at the end of fermentation,L. plantarum; time point 64 (64 hours),6.67E+04
same,concentration that will suppress production of ethanol,yeast,over 2 mg/L
same,concentration required to inhibit growth of Weisella confusa,Weisella confusa,over 25 mg/L
same,Average Ethanol,[1]; end of fermentation,"11.86 %, w/v"
same,Average Final Lactic Acid Concentration,[1]; end of fermentation,"0.38 %, w/w"
same,Average Final Ethanol Yield,"[1]; grams ethanol per grams of dry corn, average of three flasks",0.312 g/g
